Measured values published in patent US12655116B2, “Substituted isophthalic acid diamides” (Bayer Aktiengesellschaft, priority 2020, dated 2026).

Experiments:
SETVI [1] = assay: Post-emergence herbicidal action against SETVI; type: in vivo, Setaria viridis; conditions: Setaria viridis, 504 h; for pest or weed control at 5 g/ha: dosage 5 g/ha; for pest or weed control at 20 g/ha: dosage 20 g/ha
Method in brief: (§1)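 Spray, one-leaf stage: WP or EC compound in water, 600–800 l/ha, 0.2% wetting agent. Plants held about 3 weeks in the greenhouse, then visually rated in percent of kill compared with untreated controls.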

SETVI [2] = assay: Pre-emergence herbicidal action against SETVI; type: in vivo, Setaria viridis; conditions: Setaria viridis, 504 h; for pest or weed control at 80 g/ha: dosage 80 g/ha
Method in brief: (§2)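 Pre-emergence soil-surface spray of formulated compound (WP or EC; 600 to 800 l/ha; 0.2% wetting agent) over seeds sown in sandy loam. After 3 weeks under greenhouse conditions, damage is estimated visually in percent against untreated plants.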

LOLRI = assay: Pre-emergence herbicidal action against LOLRI; type: in vivo, Lolium rigidum; conditions: Lolium rigidum, 504 h, 80 g/ha
Method in brief: as §2

MATIN = assay: Pre-emergence herbicidal action against MATIN; type: in vivo, Matricaria inodora; conditions: Tripleurospermum inodorum, 504 h; for pest or weed control at 80 g/ha: dosage 80 g/ha
Method in brief: as §2

ALOMY [3] = assay: Post-emergence herbicidal action against ALOMY; type: in vivo, Alopecurus myosuroides; conditions: Alopecurus myosuroides, 504 h, dosage 20 g/ha, visual assessment about 3 weeks after treatment vs untreated controls
Method in brief: as §1

ABUTH [4] = assay: Post-emergence herbicidal action against ABUTH; type: in vivo, Abutilon theophrasti; conditions: Abutilon theophrasti, 504 h, visual assessment about 3 weeks after treatment vs untreated controls; for pest or weed control at 20 g/ha: dosage 20 g/ha
Method in brief: as §1

ABUTH [5] = assay: Pre-emergence herbicidal action against ABUTH; type: in vivo, Abutilon theophrasti; conditions: Abutilon theophrasti, 504 h
Method in brief: as §2

VERPE [6] = assay: Post-emergence herbicidal action against VERPE; type: in vivo, Veronica persica; conditions: Veronica persica, 504 h, 20 g/ha
Method in brief: as §1

VIOTR = assay: Pre-emergence herbicidal action against VIOTR; type: in vivo, Viola tricolor; conditions: Viola tricolor, 504 h, dosage 80 g/ha
Method in brief: as §2

AVEFA [7] = assay: Post-emergence herbicidal action against AVEFA; type: in vivo, Avena fatua; conditions: Avena fatua, 504 h, 20 g/ha, visual assessment about 3 weeks after treatment, 100% = plants have died, 0% = like control plants
Method in brief: as §1

AMARE [8] = assay: Pre-emergence herbicidal action against AMARE; type: in vivo, Amaranthus retroflexus; conditions: Amaranthus retroflexus, 504 h, scored visually after 3 weeks vs untreated controls, 100% = plants have died, 0% = like control plants
Method in brief: as §2

AMARE [9] = assay: Post-emergence herbicidal action against AMARE; type: in vivo, Amaranthus retroflexus; conditions: Amaranthus retroflexus, 504 h, 20 g/ha, visual assessment about 3 weeks after treatment, 100% = plants have died, 0% = like control plants
Method in brief: as §1

ALOMY [10] = assay: Pre-emergence herbicidal action against ALOMY; type: in vivo, Alopecurus myosuroides; conditions: Alopecurus myosuroides, 504 h, pre-emergence; for pest or weed control at 80 g/ha: scored visually after 3 weeks vs untreated controls (100% = plants have died, 0% = like control plants)
Method in brief: as §2

VERPE [11] = assay: Pre-emergence herbicidal action against VERPE; type: in vivo, Veronica persica; conditions: Veronica persica, 504 h; for pest or weed control at 20 g/ha: dosage 20 g/ha; for pest or weed control at 80 g/ha: dosage 80 g/ha
Method in brief: as §2

AVEFA [12] = assay: Pre-emergence herbicidal action against AVEFA; type: in vivo, Avena fatua; conditions: Avena fatua, 504 h; 80 g/ha, pre-emergence
Method in brief: as §2

ECHCG = assay: Pre-emergence herbicidal action against ECHCG; type: in vivo, Echinochloa crus-galli; conditions: Echinochloa crus-galli, 504 h, 80 g/ha
Method in brief: as §2

Question: `Cn1nnnc1NC(=O)c1ccc(Br)c(C(=O)NC2CC2)c1Br` [Example 1-344] was tested. Which pest or weed control at 5 g/ha (SETVI [1]) did it give?
Answer: The pest or weed control at 5 g/ha was 80%.

Question: And the pest or weed control at 20 g/ha (SETVI [1])?
Answer: Its pest or weed control at 20 g/ha is 90%.

Question: And the pest or weed control at 80 g/ha (SETVI [2])?
Answer: Its pest or weed control at 80 g/ha is 100%.

Question: What about the pest or weed control at 80 g/ha (LOLRI) of the same compound?
Answer: Its pest or weed control at 80 g/ha is 90%.

Question: And the pest or weed control at 20 g/ha (MATIN; dosage 20 g/ha)?
Answer: The pest or weed control at 20 g/ha was 90%.

Question: What about the pest or weed control at 80 g/ha (MATIN) of the same compound?
Answer: Its pest or weed control at 80 g/ha is 100%.

Question: And the pest or weed control at 20 g/ha (ALOMY [3])?
Answer: Its pest or weed control at 20 g/ha is 100%.

Question: And the pest or weed control at 20 g/ha (ABUTH [4])?
Answer: Its pest or weed control at 20 g/ha is 90%.

Question: And the pest or weed control at 80 g/ha (ABUTH [5]; 80 g/ha, scored visually after 3 weeks vs untreated controls (100% = plants have died, 0% = like control plants))?
Answer: The pest or weed control at 80 g/ha was 100%.

Question: What about the pest or weed control at 20 g/ha (ABUTH [5]; dosage 20 g/ha, scored visually after 3 weeks vs untreated controls, 100% = plants have died, 0% = like control plants, read-out: Pre-emergence action against ABUTH (herbicidal activity in percent)) of the same compound?
Answer: The pest or weed control at 20 g/ha was 90%.

Question: What about the pest or weed control at 20 g/ha (VERPE [6]) of the same compound?
Answer: The pest or weed control at 20 g/ha was 90%.

Question: What about the pest or weed control at 80 g/ha (VIOTR) of the same compound?
Answer: Its pest or weed control at 80 g/ha is 100%.

Question: What about the pest or weed control at 20 g/ha (AVEFA [7]) of the same compound?
Answer: The pest or weed control at 20 g/ha was 80%.

Question: And the pest or weed control at 20 g/ha (AMARE [8])?
Answer: The pest or weed control at 20 g/ha was 100%.

Question: And the pest or weed control at 80 g/ha (AMARE [8])?
Answer: The pest or weed control at 80 g/ha was 100%.

Question: And the pest or weed control at 20 g/ha (AMARE [9])?
Answer: The pest or weed control at 20 g/ha was 100%.

Question: And the pest or weed control at 80 g/ha (ALOMY [10])?
Answer: Its pest or weed control at 80 g/ha is 100%.

Question: And the pest or weed control at 20 g/ha (ALOMY [10]; 20 g/ha, scored visually after 3 weeks, 100% = plants have died, 0% = like control plants)?
Answer: Its pest or weed control at 20 g/ha is 90%.

Question: What about the pest or weed control at 20 g/ha (VERPE [11]) of the same compound?
Answer: The pest or weed control at 20 g/ha was 80%.

Question: And the pest or weed control at 80 g/ha (VERPE [11])?
Answer: Its pest or weed control at 80 g/ha is 90%.

Question: What about the pest or weed control at 80 g/ha (AVEFA [12]) of the same compound?
Answer: The pest or weed control at 80 g/ha was 90%.

Question: And the pest or weed control at 80 g/ha (ECHCG)?
Answer: The pest or weed control at 80 g/ha was 90%.

Question: How did the pest or weed control at 5 g/ha (SETVI [1]) turn out when `CNC(=O)c1c(Cl)ccc(C(=O)Nc2nnnn2C)c1Br` [Example 1-349] was run?
Answer: Its pest or weed control at 5 g/ha is 90%.

Question: And the pest or weed control at 20 g/ha (SETVI [1])?
Answer: Its pest or weed control at 20 g/ha is 90%.

Question: And the pest or weed control at 20 g/ha (SETVI [2]; dosage 20 g/ha)?
Answer: Its pest or weed control at 20 g/ha is 90%.

Question: And the pest or weed control at 80 g/ha (SETVI [2])?
Answer: Its pest or weed control at 80 g/ha is 100%.

Question: What about the pest or weed control at 80 g/ha (LOLRI) of the same compound?
Answer: Its pest or weed control at 80 g/ha is 90%.

Question: And the pest or weed control at 80 g/ha (MATIN)?
Answer: Its pest or weed control at 80 g/ha is 90%.

Question: What about the pest or weed control at 20 g/ha (ALOMY [3]) of the same compound?
Answer: The pest or weed control at 20 g/ha was 80%.

Question: And the pest or weed control at 5 g/ha (ABUTH [4]; dosage 5 g/ha)?
Answer: The pest or weed control at 5 g/ha was 80%.

Question: And the pest or weed control at 20 g/ha (ABUTH [4])?
Answer: Its pest or weed control at 20 g/ha is 90%.

Question: And the pest or weed control at 20 g/ha (VERPE [6])?
Answer: The pest or weed control at 20 g/ha was 80%.

Question: What about the pest or weed control at 80 g/ha (VIOTR) of the same compound?
Answer: Its pest or weed control at 80 g/ha is 100%.

Question: What about the pest or weed control at 20 g/ha (AVEFA [7]) of the same compound?
Answer: Its pest or weed control at 20 g/ha is 80%.

Question: And the pest or weed control at 20 g/ha (AMARE [8])?
Answer: Its pest or weed control at 20 g/ha is 100%.

Question: What about the pest or weed control at 80 g/ha (AMARE [8]) of the same compound?
Answer: The pest or weed control at 80 g/ha was 100%.

Question: And the pest or weed control at 20 g/ha (AMARE [9])?
Answer: Its pest or weed control at 20 g/ha is 100%.

Question: And the pest or weed control at 80 g/ha (ALOMY [10])?
Answer: Its pest or weed control at 80 g/ha is 100%.

Question: What about the pest or weed control at 20 g/ha (VERPE [11]) of the same compound?
Answer: Its pest or weed control at 20 g/ha is 90%.

Question: And the pest or weed control at 80 g/ha (VERPE [11])?
Answer: Its pest or weed control at 80 g/ha is 90%.

Question: And the pest or weed control at 80 g/ha (AVEFA [12])?
Answer: Its pest or weed control at 80 g/ha is 100%.

Question: And the pest or weed control at 80 g/ha (ECHCG)?
Answer: The pest or weed control at 80 g/ha was 90%.
